What all share (assay type): in vivo
Experiment [1] concerns cotton (COTT). The experiment is described as follows: Multi-crop greenhouse test, COUNTER 15G and safener PPI, herbicide POE (Examples 62-64; Tables 61-63). Set-up: dose or concentration left out as unconfirmed. The note with it: Gossypium hirsutum, Table 63, Biocide No. 1 8.96 Kg/Ha, antidote 4.48 Kg/Ha PPI where in label. As to the method: (§1) Tests according to this invention in various crops indicate widespread application of the invention. In Examples 62-66 below are described tests with a variety of herbicides contacted with COUNTER® 15G in the presence and absence of MON-7400 (Antidote No. 12); MON-13900 (No. 1); MON-4660 (No. 16) and flurazole (No. 16). Those tests were conducted according to Procedures IV or V described above and illustrated further in other foregoing examples. Plants used in all tests were, for crops (as abbreviated in parentheses); cotton (COTT); soybean (SOBE); CORN, grain sorghum (GRSO); wheat (WHEA) and RICE, and the weeds giant foxtail (GIFT) and velvetleaf (VELE). The data in the tables below represent averages of two replications.
(§2) In this test the crops and weeds were planted 1.3 cm deep in 13.7 cm X 27.7 cm pans containing Dupo silt loam soil. The test safeners were applied in acetone solution and COUNTER 15G as dry granules to soil cover layers and incorporated by shaking in a bag. Treated cover layers were placed on seeded pans which were transferred to greenhouse benches and subirrigated. Herbicide was applied POE six (6) days after PPI initiation and observations of plant injury made ten (10) days later; results are shown in Table 61. The herbicide used in this example was BEACON (No. 8).
(§3) The test procedure described in Example 62 was repeated using ACCENT® (Herbicide No. 7) as the herbicide; the biocide and safeners were the same.

In experiment [2] the test system is grain sorghum (GRSO). The experiment is described as follows: Multi-crop greenhouse test, herbicide POE (Examples 62-64; Tables 61-63). Set-up: dose or concentration left out as unconfirmed. The note with it: Biocide No. 1 8.96 Kg/Ha, antidote 4.48 Kg/Ha PPI where in label. As to the method: as §1, §2, §3
In experiment [3] the test system is RICE. The experiment is described as above. Details: dose or concentration left out as unconfirmed. The note with it: Oryza sativa, Table 63, Biocide No. 1 8.96 Kg/Ha, antidote 4.48 Kg/Ha PPI where in label. As to the method: as §1, §2, §3
Experiment [4] relates to Giant foxtail (GIFT). The experiment is described as above. Set-up: dose or concentration left out as unconfirmed. Conditions: Setaria faberi, Table 63, Biocide No. 1 8.96 Kg/Ha, antidote 4.48 Kg/Ha PPI where in label. As to the method:
as §1, §2, §3

The subject of experiment [5] is wheat (WHEA). The description is as above. Set-up: dose or concentration left out as unconfirmed. Conditions: Triticum aestivum, Table 63, Biocide No. 1 8.96 Kg/Ha, antidote 4.48 Kg/Ha PPI where in label. As to the method: as §1, §2, §3
Experiment [6] concerns soybean (SOBE). Described as above. Details: dose or concentration left out as unconfirmed. The note with it: Glycine max, Table 63, Biocide No. 1 8.96 Kg/Ha, antidote 4.48 Kg/Ha PPI where in label. As to the method: as §1, §2, §3
The test system of experiment [7] is Velvetleaf (VELE). Described as above. Details: dose or concentration left out as unconfirmed. The note with it: Abutilon theophrasti, Table 63, Biocide No. 1 8.96 Kg/Ha, antidote 4.48 Kg/Ha PPI where in label. As to the method: as §1, §2, §3
For experiment [8], the system named is Corn. The description is as above. Details: inhibition: dose or concentration left out as unconfirmed. Conditions: for inhibition: Zea mays, Table 63, Biocide No. 1 8.96 Kg/Ha, antidote 4.48 Kg/Ha PPI where in label. As to the method:
as §1, §2, §3

Experiment [9] relates to Corn. Kind of experiment: Greenhouse test Procedure VI: biocide and antidote in furrow, herbicide PPI in cover layer (Examples 43-47, 59-61; Tables 42-46, 58-60). The note with it: COUNTER 15G/PURSUIT interaction; Example 47. From the text:
This procedure describes interaction among herbicide, biocide and antidote when the herbicide is incorporated in a soil cover layer and the biocide and the antidote are applied in a soil furrow containing crop seed before emergence of the crop. The soil and seeding depth were described in Procedure IV. A first container was designated as an untreated control, a second container was designated as a herbicide control, a third container was designated as a herbicide + biocide control and a fourth container as a herbicide + biocide + antidote test container. The biocide and antidote were formulated as granules. The biocide was applied to the soil furrows of the third and fourth containers at an application rate of 1.1 mg of active compound per cm of row. The antidote was applied to the soil furrow of the fourth container at an application rate of 0.37 mg of active compound per cm of row. A measured amount of the herbicide dispersed or dissolved in acetone was applied to a measured quantity of soil. The quantity of soil treated with the herbicide was thoroughly mixed to incorporate the herbicide. Samples of this soil were used to cover the seed beds of the second, third and fourth containers. For each test series, the seed bed of the first container was likewise covered by a soil layer not treated with herbicide and without biocide or antidote in the soil furrow.
The containers were then placed on a bench in a greenhouse. Watering was by subirrigation plus overhead irrigation after the plants emerged. All treatments were run in duplicate. Plant response was observed according to Procedure IV. Variations in this procedure will be noted in the examples.
In continuing tests to evaluate the variations of this invention, a series of tests were conducted to determine the efficacy of the above safeners in Examples 39-42 to alleviate corn injury induced by the interaction of various additional commercial sulfonylurea herbicides with COUNTER 15G insecticide. In this example, the tests were conducted according to Procedure VI above. In modifications of that procedure, herbicides were applied to soil samples as acetone/water suspensions, incorporated by shaking in a closed container, with subsamples used to cover furrow-treated 10.2 cm pots. Pots were subirrigated followed by overhead misting on days 6-10.
This example was designed to test the safening effect of those above safeners used in this test series to relieve corn injury by negative synergism induced by interaction of COUNTER 15G and three imidazolinone herbicides, i.e., imazaquin and imazapyr (used in the POE tests in Example 41) and AC 263222 (a.i. in CADRE® herbicide). As differing from the tests in Example 41, this test was a PPI test according to Procedure VI described above. Observation of test results (Table 43) were taken thirteen 913) days after in-furrow PPI preparation.
This example describes PPI tests to evaluate said test safeners in this series with analogs of the sulfonamide herbicides tested under POE herbicide application procedures described in Example 42. In these tests, conducted according to Procedure VI described above, Herbicide Nos. 20, 22 and 24 were applied PPI with the insecticide and antidote. Observations of tests results were made thirteen days after PPI initiation.
An additional three (3) sulfonamide herbicide analogs were tested simultaneously and under the same conditions described in Example 45.
Another test of this invention involved the safening effects of the safeners in this series against negative synergy inducted by the interaction of COUNTER 15G and a sulfonylurea herbicide (OUST®), Herbicide No. 13, and PURSUIT, an imidazolinone herbicide, No. 6. Test conditions were the same as those in Examples 43-46. Other procedures for applying herbicidal formulations are as described in Example 42. […]

Experiment [10] deals with Corn. Kind of experiment: Greenhouse test Procedure VII: biocide and antidote in furrow, herbicide POE (Examples 39-42, 48-50, 56-58; Tables 38-41, 47-49, 55-57). The note with it: in-furrow antidote; COUNTER 15G + sulfonamide herbicides; Table 41. The method, boiled down:
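Corn seed was planted in greenhouse pots, with COUNTER 15G insecticide plus antidote granules applied in-furrow (e.g. 1.1 + 0.37 mg a.i./cm, or 227 g/305 m with acetone-applied safeners). About five days later, herbicides in water with 0.25% v/v X-77 were track-sprayed post-emergence at 187 L/ha. Plant response was scored eight days afterward, with two to four replicates.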

[11] abbreviates: Herb. No. 18 (PURSUIT) 0.009 Kg/Ha POE.
Setting [12] is: Herb. No. 18 (PURSUIT) 0.035 Kg/Ha POE.
[13] abbreviates: Herb. No. 18 (PURSUIT) 0.14 Kg/Ha POE.

The structures appear in SMILES notation.

As to `CCc1cnc(C2=NC(C)(C(C)C)C(=O)N2)c(C(=O)O)c1` (stereo not drawn) [Herb. No. 18], the inhibition worked out at 40% in [1] (setting [11]); 45% in experiment [1] (setting [12]); 50% in experiment [1] (setting [13]); 60% in experiment [2] (Table 63, Herb. No. 18 (PURSUIT) 0.009 Kg/Ha POE); 65% in experiment [2] (Table 63, Herb. No. 18 (PURSUIT) 0.035 Kg/Ha POE); 75% in experiment [2] (Table 63, Herb. No. 18 (PURSUIT) 0.14 Kg/Ha POE). Moreover, the inhibition in [3] (setting [11]) was 20%; in experiment [3] (setting [12]) it was 45%; in experiment [3] (setting [13]) it was 60%; in experiment [4] (setting [11]) it was 60%; in experiment [4] (setting [12]), 80%; in experiment [4] (setting [13]), 80%. In addition, the inhibition in experiment [5] (setting [11]) stood at 0%; in experiment [5] (setting [12]), 20%; in [5] (setting [13]), 35%; in experiment [6] (setting [11]), 5%; in experiment [6] (setting [12]) it was 10%; in experiment [6] (setting [13]), 10%. The inhibition in experiment [7] (setting [11]) was 75%; in [7] (setting [12]), 95%; in [7] (setting [13]), 100%; in experiment [8] (setting [11]) it was 5%; in experiment [8] (setting [12]), 25%; in experiment [8] (setting [13]), 40%.

As to `N#CCOc1ccc(Cl)c2cccnc12` [Antidote No. 33, Acetonitrile, [(5-chloro-8-quinolinyl)oxy]-], the “safening” value in [9] is on record as “good activity”. For the same compound, the “corn injury” value in [8] (COUNTER 15G and BEACON, Example 62) is on record as “effectively reduced”; in experiment [10], “significantly reduced”.
